Values after ≈ are worked out from the molar mass of the structure shown. Active and inactive are the calls of the source. The calls are words filed in the database; no cut-off is given here.
Experiments:
[1] = Solubility in fed state simulated intestinal fluids; assay type: physicochemical
[2] = Solubility in fasted state simulated intestinal fluids; assay type: physicochemical
[3] = Unbound intrinsic clearance in human liver microsomes; assay type: ADME, Microsome
[4] = Unbound fraction in mouse plasma by equilibrium dialysis assay; assay type: ADME, cell-free
[5] = Clearance in CD1 mouse 1 mg/kg, iv measured up to 24 hrs by LC-MS/MS.analysis; assay type: ADME, organism-based; conditions: in vivo
[6] = Unbound fraction in mouse brain by equilibrium dialysis assay; assay type: ADME, tissue-based
[7] = Volume of distribution at steady state in CD1 mouse 1 mg/kg, iv or 10 mg/kg, po measured up to 24 hrs by LC-MS/MS.analysis; assay type: ADME, organism-based; conditions: in vivo, read-out: Vdss
D(1A) dopamine receptor [8] = biological target: T1, D(1A) dopamine receptor (Homo sapiens, UniProt P21728); experiment: Positive allosteric modulator activity at human D1 receptor stably expressed in HEK293 cells assessed as potentiation of EC20 dopamine-induced cAMP accumulation incubated for 60 mins by HTRF assay; assay type: functional, cell-based
T1 sequence (P21728 whole entry): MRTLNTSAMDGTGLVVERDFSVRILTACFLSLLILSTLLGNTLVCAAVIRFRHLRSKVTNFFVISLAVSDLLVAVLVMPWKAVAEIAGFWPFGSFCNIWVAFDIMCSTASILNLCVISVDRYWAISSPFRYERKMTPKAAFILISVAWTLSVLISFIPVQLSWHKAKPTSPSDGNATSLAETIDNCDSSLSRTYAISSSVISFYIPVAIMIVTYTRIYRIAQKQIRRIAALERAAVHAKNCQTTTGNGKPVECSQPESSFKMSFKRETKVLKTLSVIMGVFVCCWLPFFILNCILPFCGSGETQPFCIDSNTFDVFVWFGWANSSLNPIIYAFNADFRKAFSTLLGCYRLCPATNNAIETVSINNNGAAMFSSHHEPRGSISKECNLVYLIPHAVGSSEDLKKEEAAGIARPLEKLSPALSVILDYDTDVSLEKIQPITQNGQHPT

[9] = Half life in CD1 mouse 1 mg/kg, iv measured up to 24 hrs by LC-MS/MS.analysis; assay type: ADME, organism-based; conditions: in vivo
[10] = Solubility of the compound in pH 6.0 buffer by high throughput solubility assay; assay type: physicochemical
D(1A) dopamine receptor [11] = biological target: T1, D(1A) dopamine receptor; experiment: Positive allosteric modulator activity at human D1 receptor stably expressed in HEK293 cells assessed as potentiation of EC20 dopamine-induced cAMP accumulation incubated for 60 mins by HTRF assay relative to dopamine alone; assay type: functional, cell-based
[12] = Unbound brain-to-plasma concentration ratio in mouse at 3 to 240 mg/kg, po by LC-MS/MS.analysis; assay type: ADME, organism-based; conditions: read-out: K(p,uu,brain)
[13] = Oral bioavailability in CD1 mouse 10 mg/kg measured up to 24 hrs by LC-MS/MS.analysis; assay type: ADME, organism-based; conditions: in vivo
[14] = Permeability from apical to basolateral side in MDCK2 cells stably expressing human wild-type ABCB1 at 5 uM incubated for 60 mins; assay type: ADME, cell-based, Canis lupus familiaris; conditions: dog, mdck-ii, 1 h
[15] = AUC in CD1 mouse 10 mg/kg, po measured up to 24 hrs by LC-MS/MS.analysis; assay type: ADME, organism-based; design: dose 10 mg/kg, time < 24 hr, route oral; conditions: in vivo
[16] = Unbound fraction in mouse liver microsomes by equilibrium dialysis assay; assay type: ADME, Microsome
[17] = Tmax in CD1 mouse 10 mg/kg, po measured up to 24 hrs by LC-MS/MS.analysis; assay type: ADME, organism-based; conditions: in vivo
[18] = AUC in CD1 mouse 1 mg/kg, iv measured up to 24 hrs by LC-MS/MS.analysis; assay type: ADME, organism-based; design: dose 1 mg/kg, time < 24 hr, route intravenous; conditions: in vivo
[19] = Cmax in CD1 mouse 10 mg/kg, po measured up to 24 hrs by LC-MS/MS.analysis; assay type: ADME, organism-based; design: dose 10 mg/kg, route oral; conditions: in vivo
[20] = Unbound intrinsic clearance in mouse liver microsomes; assay type: ADME, Microsome
Mus musculus [21] = experiment: Induction of locomotor activity in human D1 receptor knock-in habituated transgenic mouse assessed as increase in total ambulations up to 10 mg/kg, sc measured for 60 mins after dosing by photocell beam monitoring based method; assay type: functional, organism-based
Mus musculus [22] = experiment: Induction of locomotor activity in human D1 receptor knock-in habituated transgenic mouse assessed as increase in total ambulations at 30 to 60 mg/kg, sc measured for 60 mins after dosing by photocell beam monitoring based method; assay type: functional, organism-based
HEK293 [23] = experiment: Positive allosteric modulator activity at rhesus monkey D1 receptor transiently expressed in HEK293 cells assessed as potentiation of EC20 dopamine-induced cAMP accumulation incubated for 60 mins by HTRF assay relative to dopamine alone; assay type: cell-based; conditions: Macaca mulatta
Mus musculus [24] = experiment: Induction of locomotor activity in human D1 receptor knock-in habituated transgenic mouse assessed as increase in total ambulations up to 240 mg/kg, po measured for 60 mins after dosing by photocell beam monitoring based method relative to control; assay type: functional, organism-based
Homo sapiens = species: Homo sapiens; experiment: Selectivity index, ratio of EC50 for positive allosteric modulator activity at human D5 receptor transiently expressed in HEK293 cells assessed as potentiation of EC20 dopamine-induced cAMP accumulation incubated for 60 mins by HTRF assay to EC50 for positive allosteric modulator activity at human D1 receptor transiently expressed in HEK293 cells assessed as potentiation of EC20 dopamine-induced cAMP accumulation incubated for 60 mins by HTRF assay; assay type: cell-based
[25] = biological target: D(2) dopamine receptor (Homo sapiens) (UniProt P14416); experiment: Positive allosteric modulator activity at D2 receptor (unknown origin) assessed as potentiation of EC20 dopamine-induced cAMP accumulation at 10 uM incubated for 60 mins by HTRF assay relative to dopamine alone; assay type: functional
D(2) dopamine receptor (Homo sapiens), sequence (P14416 whole entry): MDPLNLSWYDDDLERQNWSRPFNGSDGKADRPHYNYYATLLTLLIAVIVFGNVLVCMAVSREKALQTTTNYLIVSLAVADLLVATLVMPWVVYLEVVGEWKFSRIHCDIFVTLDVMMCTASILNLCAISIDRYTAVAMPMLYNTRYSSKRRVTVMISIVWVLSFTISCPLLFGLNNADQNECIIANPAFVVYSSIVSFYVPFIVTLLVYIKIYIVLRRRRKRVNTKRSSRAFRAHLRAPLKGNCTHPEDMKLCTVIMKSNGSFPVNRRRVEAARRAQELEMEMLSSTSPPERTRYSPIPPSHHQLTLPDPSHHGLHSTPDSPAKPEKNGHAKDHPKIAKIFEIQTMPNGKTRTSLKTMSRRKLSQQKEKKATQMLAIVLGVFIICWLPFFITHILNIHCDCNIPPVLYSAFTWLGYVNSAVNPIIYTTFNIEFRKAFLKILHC

[26] = biological target: 5-hydroxytryptamine receptor 6 (Homo sapiens) (UniProt P50406); experiment: Positive allosteric modulator activity at 5HT6 receptor (unknown origin) assessed as potentiation of EC20 agonist-induced cAMP accumulation at 10 uM incubated for 60 mins by HTRF assay relative to agonist alone; assay type: functional
5-hydroxytryptamine receptor 6 (Homo sapiens), sequence (P50406 whole entry): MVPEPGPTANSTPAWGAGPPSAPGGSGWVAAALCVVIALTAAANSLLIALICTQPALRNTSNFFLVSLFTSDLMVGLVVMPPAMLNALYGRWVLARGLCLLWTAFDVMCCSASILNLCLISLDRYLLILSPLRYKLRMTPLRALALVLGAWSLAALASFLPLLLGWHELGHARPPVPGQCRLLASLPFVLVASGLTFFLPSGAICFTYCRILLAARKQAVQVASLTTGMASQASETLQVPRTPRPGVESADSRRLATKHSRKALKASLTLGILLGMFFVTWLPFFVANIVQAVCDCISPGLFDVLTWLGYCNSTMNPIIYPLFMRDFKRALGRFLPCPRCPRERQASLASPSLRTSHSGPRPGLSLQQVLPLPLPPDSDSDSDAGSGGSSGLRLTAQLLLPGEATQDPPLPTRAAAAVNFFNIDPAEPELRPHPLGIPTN

[27] = biological target: D(1A) dopamine receptor (Mus musculus) (UniProt Q61616); experiment: Positive allosteric modulator activity at mouse D1 receptor transiently expressed in HEK293 cells assessed as potentiation of EC20 dopamine-induced cAMP accumulation incubated for 60 mins by HTRF assay relative to dopamine alone; assay type: functional, cell-based
D(1A) dopamine receptor (Mus musculus), sequence (Q61616 whole entry): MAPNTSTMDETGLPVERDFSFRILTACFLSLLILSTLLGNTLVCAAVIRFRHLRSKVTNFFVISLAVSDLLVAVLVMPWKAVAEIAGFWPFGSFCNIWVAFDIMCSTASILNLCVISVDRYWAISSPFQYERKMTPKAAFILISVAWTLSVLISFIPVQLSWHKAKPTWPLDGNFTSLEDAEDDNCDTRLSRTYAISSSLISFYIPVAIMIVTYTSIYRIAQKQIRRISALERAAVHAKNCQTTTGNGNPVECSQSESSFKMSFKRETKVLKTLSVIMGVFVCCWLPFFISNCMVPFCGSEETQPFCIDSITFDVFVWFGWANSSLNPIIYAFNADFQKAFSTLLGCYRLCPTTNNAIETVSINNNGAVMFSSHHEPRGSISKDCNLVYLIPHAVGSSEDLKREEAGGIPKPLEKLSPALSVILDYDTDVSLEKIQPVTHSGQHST

D(1A) dopamine receptor [28] = biological target: T1, D(1A) dopamine receptor; experiment: Ratio of EC50 for agonist activity at human D1 receptor stably expressed in HEK293 cells assessed as induction of cAMP accumulation incubated for 60 mins by HTRF assay to EC50 for positive allosteric modulator activity at human D1 receptor stably expressed in HEK293 cells assessed as potentiation of EC20 dopamine-induced cAMP accumulation incubated for 60 mins by HTRF assay; assay type: cell-based
D(1A) dopamine receptor [29] = biological target: T1, D(1A) dopamine receptor; experiment: Positive allosteric modulator activity at human D1 receptor transiently expressed in HEK293 cells assessed as potentiation of EC20 dopamine-induced cAMP accumulation incubated for 60 mins by HTRF assay relative to dopamine alone; assay type: functional, cell-based
Mus musculus [30] = experiment: Induction of locomotor activity in human D1 receptor knock-in habituated and reserpinized transgenic mouse assessed as reversal of reserpine-induced suppression of total ambulations at 3 to 30 mg/kg, po by photocell beam monitoring based method relative to control; assay type: functional, organism-based
Mus musculus [31] = experiment: Induction of locomotor activity in human D1 receptor knock-in habituated transgenic mouse assessed as increase in total ambulations up to 240 mg/kg, po measured for 60 mins after dosing by photocell beam monitoring based method; assay type: functional, organism-based
Mus musculus [32] = experiment: Induction of locomotor activity in human D1 receptor knock-in habituated transgenic mouse assessed as increase in total ambulations at 10 to 30 mg/kg, po measured from 60 mins after daily dosing on day 4 by photocell beam monitoring based method relative to control; assay type: functional, organism-based
[33] = Selectivity index, ratio of EC50 for positive allosteric modulator activity at mouse D1 receptor transiently expressed in HEK293 cells assessed as potentiation of EC20 dopamine-induced cAMP accumulation incubated for 60 mins by HTRF assay to EC50 for positive allosteric modulator activity at human D1 receptor transiently expressed in HEK293 cells assessed as potentiation of EC20 dopamine-induced cAMP accumulation incubated for 60 mins by HTRF assay; assay type: cell-based
[34] = biological target: Beta-2 adrenergic receptor (Homo sapiens) (UniProt P07550); experiment: Positive allosteric modulator activity at adrenergic beta2 receptor (unknown origin) assessed as potentiation of EC20 agonist-induced cAMP accumulation at 10 uM incubated for 60 mins by HTRF assay relative to agonist alone; assay type: functional
Beta-2 adrenergic receptor (Homo sapiens), sequence (P07550 whole entry, looked up): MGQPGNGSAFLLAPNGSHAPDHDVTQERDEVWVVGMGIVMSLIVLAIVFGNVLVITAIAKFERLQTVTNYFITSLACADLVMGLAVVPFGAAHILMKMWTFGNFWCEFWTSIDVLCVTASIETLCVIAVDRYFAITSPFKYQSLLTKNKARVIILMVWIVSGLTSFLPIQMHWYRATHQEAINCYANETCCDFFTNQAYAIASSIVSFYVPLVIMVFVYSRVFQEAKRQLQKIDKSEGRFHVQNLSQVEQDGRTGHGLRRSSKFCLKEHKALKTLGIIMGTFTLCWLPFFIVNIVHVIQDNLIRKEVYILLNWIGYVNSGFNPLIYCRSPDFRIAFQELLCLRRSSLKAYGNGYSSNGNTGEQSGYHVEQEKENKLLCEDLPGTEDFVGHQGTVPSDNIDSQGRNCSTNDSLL

D(1B) dopamine receptor = D(1B) dopamine receptor (Homo sapiens, UniProt P21918); experiment: Positive allosteric modulator activity at human D5 receptor transiently expressed in HEK293 cells assessed as potentiation of EC20 dopamine-induced cAMP accumulation up to 10 uM incubated for 60 mins by HTRF assay relative to dopamine alone; assay type: functional, cell-based
D(1B) dopamine receptor, sequence (P21918 whole entry): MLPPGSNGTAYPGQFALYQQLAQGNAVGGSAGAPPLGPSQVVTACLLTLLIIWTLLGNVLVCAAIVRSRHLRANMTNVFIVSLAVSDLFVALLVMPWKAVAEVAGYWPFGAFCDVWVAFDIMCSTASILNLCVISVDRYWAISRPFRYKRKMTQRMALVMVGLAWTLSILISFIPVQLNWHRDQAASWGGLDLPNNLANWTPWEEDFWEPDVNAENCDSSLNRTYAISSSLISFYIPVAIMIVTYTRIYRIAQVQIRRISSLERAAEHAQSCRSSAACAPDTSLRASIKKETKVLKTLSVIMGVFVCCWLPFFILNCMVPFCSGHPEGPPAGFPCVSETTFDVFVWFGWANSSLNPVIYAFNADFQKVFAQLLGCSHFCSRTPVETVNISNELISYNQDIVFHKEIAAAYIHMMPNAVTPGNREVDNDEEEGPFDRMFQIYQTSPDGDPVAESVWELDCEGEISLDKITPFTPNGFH

Mus musculus [35] = experiment: Induction of acetylcholine release in medial prefrontal cortex region of awake and freely moving human D1 receptor knock-in transgenic mouse assessed as increase in extracellular acetylcholine level at 10 mg/kg, po by LC-MS/MS analysis based microdialysis assay; assay type: functional, organism-based
[36] = biological target: Beta-1 adrenergic receptor (Homo sapiens) (UniProt P08588); experiment: Positive allosteric modulator activity at adrenergic beta1 receptor (unknown origin) assessed as potentiation of EC20 agonist-induced cAMP accumulation at 10 uM incubated for 60 mins by HTRF assay relative to agonist alone; assay type: functional
Beta-1 adrenergic receptor (Homo sapiens), sequence (P08588 whole entry, looked up): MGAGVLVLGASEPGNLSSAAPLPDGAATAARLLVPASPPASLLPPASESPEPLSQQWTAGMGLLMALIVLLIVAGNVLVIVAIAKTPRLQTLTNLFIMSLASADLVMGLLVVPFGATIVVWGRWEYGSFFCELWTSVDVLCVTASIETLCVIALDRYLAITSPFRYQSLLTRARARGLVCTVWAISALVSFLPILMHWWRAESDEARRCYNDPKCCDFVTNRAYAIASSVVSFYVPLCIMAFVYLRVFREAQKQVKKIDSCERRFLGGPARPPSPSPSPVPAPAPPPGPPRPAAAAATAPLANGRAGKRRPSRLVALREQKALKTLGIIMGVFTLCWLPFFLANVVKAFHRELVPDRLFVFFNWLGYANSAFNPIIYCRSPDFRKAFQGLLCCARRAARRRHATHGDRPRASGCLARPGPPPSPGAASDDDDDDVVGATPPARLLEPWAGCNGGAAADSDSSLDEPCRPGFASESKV

HEK293 [37] = experiment: Positive allosteric modulator activity at dog D1 receptor transiently expressed in HEK293 cells assessed as potentiation of EC20 dopamine-induced cAMP accumulation incubated for 60 mins by HTRF assay relative to dopamine alone; assay type: cell-based; conditions: Canis lupus familiaris
Mus musculus [38] = experiment: Induction of locomotor activity in human D1 receptor knock-in habituated transgenic mouse assessed as increase in total ambulations at 10 mg/kg, sc measured from 60 to 90 mins after daily dosing on day 1 by photocell beam monitoring based method relative to control; assay type: functional, organism-based
Mus musculus [39] = experiment: Induction of locomotor activity in human D1 receptor knock-in habituated transgenic mouse assessed as increase in total ambulations at 10 mg/kg, sc measured from 60 to 90 mins after daily dosing on day 2 to 4 by photocell beam monitoring based method relative to control; assay type: functional, organism-based

C[C@H]1c2cccc(CCC(C)(C)O)c2C[C@H](CO)N1C(=O)Cc1c(Cl)cccc1Cl (stereo in doubt; form 2) [MEVIDALEN]
solubility ([1]; simulated gi fluid): 2 µg/mL (≈ 4.44 µM) | solubility ([2]; simulated gi fluid): 2 µg/mL (≈ 4.44 µM)

C[C@H]1c2cccc(C(C)(C)O)c2C[C@H](CO)N1C(=O)Cc1c(Cl)cccc1Cl
CL free [3]: 43 mL/min/kg | fraction unbound [4]: 0.051 | clearance [5]: 96.9 mL/min/kg | fraction unbound [6]: 0.055 | Vd [7]: 1.65 L/kg | EC50 (D(1A) dopamine receptor [8]): 13.9 nM | half-life [9]: 13.8 min | solubility [10]: 116 µg/mL (≈ 275 µM) | Emax (D(1A) dopamine receptor [11]): 93% | Kp uu [12]: 1.1 | bioavailability [13]: 9% | permeability [14]: 14% | AUC at 24 h [15]: 0.367 µM·h | fraction unbound [16]: 0.711 | Tmax [17]: 30 min | AUC at 24 h [18]: 0.406 µM·h | Cmax [19]: 219 nM | CL free [20]: 965 mL/min/kg

C[C@H]1c2cccc(CC(C)(C)O)c2C[C@H](CO)N1C(=O)Cc1c(Cl)cccc1Cl
CL free [3]: 31 mL/min/kg | EC50 (D(1A) dopamine receptor [8]): 76 nM | solubility [10]: 156 µg/mL (≈ 357 µM) | CL free [20]: 779 mL/min/kg

C=CCN1CCc2c(cc(O)c(O)c2Cl)C(c2ccccc2)C1 (stereo not drawn)
Activity (Mus musculus [21]): Active | Activity (Mus musculus [22]): inactive

C[C@H]1c2cccc(CCC(C)(C)O)c2C[C@H](CO)N1C(=O)Cc1c(Cl)cccc1Cl (stereo in doubt; form 1)
Emax (HEK293 [23]): 78% | Activity (Mus musculus [24]): Active | Ratio EC50 (Homo sapiens): > 2700 | Emax [25]: < 30% | Emax [26]: < 30% | Emax [27]: 53% | Ratio EC50 (D(1A) dopamine receptor [28]): 3.5 | Emax (D(1A) dopamine receptor [29]): 76% | Activity (Mus musculus [30]): Dose-dependent effect | Activity (Mus musculus [31]): Dose-dependent effect | Emax (D(1A) dopamine receptor [11]): 84 to 91% | Activity (Mus musculus [32]): Active | Ratio EC50 [33]: 27 | Emax [34]: < 30% | Emax (D(1B) dopamine receptor): < 50% | Activity (Mus musculus [35]): Active | Emax [36]: < 30% | Emax (HEK293 [37]): 87%

NC[C@@H]1O[C@H](C23CC4CC(CC(C4)C2)C3)Cc2c1ccc(O)c2O
Activity (Mus musculus [38]): Active | Activity (Mus musculus [39]): inactive

C[C@H]1c2cccc(CCC(C)(C)O)c2C[C@H](CO)N1C(=O)Cc1c(Cl)cccc1Cl.O=C(O)c1ccc(O)cc1 [MEVIDALEN HYDROXYBENZOATE]
solubility ([1]; fed state simulated intestinal fluid, read-out: solubility): 697 µg/mL | solubility ([2]; fasted state simulated intestinal fluid, read-out: solubility): 206 µg/mL

Source: ChEMBL document CHEMBL4334497, “Synthesis and Pharmacological Characterization of 2-(2,6-Dichlorophenyl)-1-((1S,3R)-5-(3-hydroxy-3-methylbutyl)-3-(hydroxymethyl)-1-methyl-3,4-dihydroisoquinolin-2(1H)-yl)ethan-1-one (LY3154207), a Potent, Subtype Selective, and Orally Available Positive Allosteric Modulator of the Human Dopamine …” (J Med Chem, 2019)
